The structures appear in SMILES notation.

The target of this assay is GST-Xa-hAAK1 (Homo sapiens (Human), UniProt Q2M2I8). The assay is described as follows: AAK1 Kinase Assay. The settings on record: bacterially expressed GST-Xa-hAAK1 3.5 nM; ATP 22 μM; fluoresceinated peptide substrate 1.5 μM; 3 hours at room temperature. The assay is classed as biochemical. As for the experimental part:
The assays were performed in U-bottom 384-well plates. […] The reactions were initiated by the combination of bacterially expressed, GST-Xa-hAAK1 with substrates and test compounds. The reactions were incubated at room temperature for 3 hours and terminated by adding 60 μl of 35 mM EDTA buffer to each sample. The reactions were analyzed on the Caliper LabChip 3000 (Caliper, Hopkinton, Mass.) by electrophoretic separation of the fluorescent substrate and phosphorylated product. […] Compounds were dissolved at 10 mM in dimethylsulfoxide (DMSO) and evaluated at eleven concentrations. IC50 values were derived by non-linear regression analysis.

Chain of GST-Xa-hAAK1 (Q2M2I8 whole entry): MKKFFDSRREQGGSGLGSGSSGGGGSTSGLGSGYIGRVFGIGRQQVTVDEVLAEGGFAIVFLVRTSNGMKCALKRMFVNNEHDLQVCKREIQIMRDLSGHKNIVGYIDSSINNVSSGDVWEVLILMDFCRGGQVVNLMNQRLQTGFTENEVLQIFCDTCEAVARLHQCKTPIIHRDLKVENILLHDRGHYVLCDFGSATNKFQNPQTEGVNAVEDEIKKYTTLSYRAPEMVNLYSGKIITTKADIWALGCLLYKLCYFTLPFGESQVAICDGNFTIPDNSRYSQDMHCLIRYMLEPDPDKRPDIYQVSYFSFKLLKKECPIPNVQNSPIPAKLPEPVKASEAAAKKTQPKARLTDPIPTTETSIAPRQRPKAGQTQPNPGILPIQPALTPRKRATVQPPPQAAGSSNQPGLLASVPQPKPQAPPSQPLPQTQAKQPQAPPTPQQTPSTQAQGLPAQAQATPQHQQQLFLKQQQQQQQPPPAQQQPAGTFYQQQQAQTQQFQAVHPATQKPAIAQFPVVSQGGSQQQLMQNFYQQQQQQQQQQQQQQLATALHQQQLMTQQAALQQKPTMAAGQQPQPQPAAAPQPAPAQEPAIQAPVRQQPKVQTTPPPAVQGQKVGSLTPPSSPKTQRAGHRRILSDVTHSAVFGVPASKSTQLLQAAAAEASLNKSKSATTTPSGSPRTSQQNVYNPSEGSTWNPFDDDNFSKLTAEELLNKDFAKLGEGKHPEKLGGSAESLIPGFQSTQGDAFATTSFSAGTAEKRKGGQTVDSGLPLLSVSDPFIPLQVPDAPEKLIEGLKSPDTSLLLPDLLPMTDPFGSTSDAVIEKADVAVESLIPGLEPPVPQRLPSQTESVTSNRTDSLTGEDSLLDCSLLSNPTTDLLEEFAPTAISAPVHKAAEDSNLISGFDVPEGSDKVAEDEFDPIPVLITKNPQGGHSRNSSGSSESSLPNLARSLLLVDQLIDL

In general, IC50 refers to the concentration that inhibits the measured activity by half. On to `CC(C)C[C@](C)(N)COc1ccc2c(c1)COc1c-2ccnc1Cl` [Example 52, (S)-1-((4-chloro-6H-isochromeno[3,4-c]pyridin-8-yl)oxy)-2,4-dimethylpentan-2-amine], for which the IC50 is 2.2 nM.
As to `CC(C)C[C@](C)(N)COc1ccc2c(c1)COc1cnc(N)cc1-2` [Example 53, (S)-8-((2-amino-2,4-dimethylpentyl)oxy)-6H-isochromeno[3,4-c]pyridin-2-amine], the concentration for half-maximal inhibition (IC50) amounted to 4.4 nM.
For the compound `CC(C)C[C@](C)(N)COc1ccc2c(c1)COc1cnc(NC(=O)OC(C)C)cc1-2` [Example 54, (S)-isopropyl (8-((2-amino-2,4-dimethylpentyl)oxy)-6H-isochromeno[3,4-c]pyridin-2-yl)carbamate], the IC50 was 2.1 nM.
As to `CC(C)C[C@](C)(N)COc1ccc2c(c1)COc1cnc(NS(C)(=O)=O)cc1-2` [Example 55, (S)—N-(8-((2-amino-2,4-dimethylpentyl)oxy)-6H-isochromeno[3,4-c]pyridin-2-yl)methanesulfonamide], the 50% inhibitory concentration (IC50) was 123 nM.
As for `CC(C)C[C@](C)(N)COc1ccc2c(c1)COc1cnc(NS(=O)(=O)C3CC3)cc1-2` [Example 56, (S)—N-(8-((2-amino-2,4-dimethylpentyl)oxy)-6H-isochromeno[3,4-c]pyridin-2-yl)cyclopropanesulfonamide], the IC50 was determined as 37 nM.
In the case of `CC(C)C[C@](C)(N)COc1ccc2c(c1)COc1cnc(F)cc1-2` [Example 57, (S)-1-((2-fluoro-6H-isochromeno[3,4-c]pyridin-8-yl)oxy)-2,4-dimethylpentan-2-amine], the half-inhibitory concentration (IC50) stood at 34 nM.
As to `COC(=O)Nc1ncc2c(c1Cl)-c1cc(F)c(OC[C@@](C)(N)CC(C)C)cc1CO2` [Example 58, (S)-methyl (8-((2-amino-2,4-dimethylpentyl)oxy)-1-chloro-9-fluoro-6H-isochromeno[3,4-c]pyridin-2-yl)carbamate], the IC50 is 18 nM.
As to `CC(C)C[C@](C)(N)COc1ccc2c(c1)COc1cnc(S(C)(=O)=O)cc1-2` [Example 59, (S)-2,4-dimethyl-1-((2-(methylsulfonyl)-6H-isochromeno[3,4-c]pyridin-8-yl)oxy)pentan-2-amine], the half-maximal inhibitory concentration (IC50) was 184 nM.
In the case of `CC(C)C[C@](C)(N)COc1ccc2c(c1)COc1c-2ccnc1N` [Example 60, (S)-8-((2-amino-2,4-dimethylpentyl)oxy)-6H-isochromeno[3,4-c]pyridin-4-amine], the concentration for half-maximal inhibition (IC50) was 0.74 nM.
On to `CC(C)C[C@](C)(N)COc1ccc2c(c1Cl)COc1cnc(N)cc1-2` [Example 61, (S)-8-((2-amino-2,4-dimethylpentyl)oxy)-7-chloro-6H-isochromeno[3,4-c]pyridin-2-amine], for which the IC50 worked out at 0.41 nM.
In the case of `COC(=O)Nc1cc2c(cn1)OCc1c-2ccc(OC[C@@](C)(N)CC(C)C)c1Cl` [Example 62, (S)-methyl (8-((2-amino-2,4-dimethylpentyl)oxy)-7-chloro-6H-isochromeno[3,4-c]pyridin-2-yl)carbamate], the IC50 was determined as 0.81 nM.
Under `COC(=O)Nc1nc(Cl)c2c(c1Cl)-c1ccc(OC[C@@](C)(N)CC(C)C)c(Cl)c1CO2` [Example 63, (S)-methyl (8-((2-amino-2,4-dimethylpentyl)oxy)-1,4,7-trichloro-6H-isochromeno[3,4-c]pyridin-2-yl)carbamate] stands 15 nM.
Regarding `COC(=O)Nc1nccc2c1OCc1cc(OC[C@@](C)(N)CC(C)C)ccc1-2` [Example 64, (S)-methyl (8-((2-amino-2,4-dimethylpentyl)oxy)-6H-isochromeno[3,4-c]pyridin-4-yl)carbamate], the IC50 was determined as 7.8 nM.

These data come from US10174044B2, “Fused pyridines as kinase inhibitors” (BRISTOL-MYERS SQUIBB COMPANY, priority 2015, dated 2019).
